Measured values from PubChem BioAssay (NCI).
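Tested at 5 concentrations; 48 h exposure; 96-well plates; endpoints linearly interpolated, else capped at highest concentration. GI50 marks 50% less growth. TGI denotes the concentration required for complete inhibition of growth.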

Columns and labels:
Test in all cases: growth of human tumour cells (NCI), 48 h
CCRF-CEM leukemia = system: CCRF-CEM leukemia
K-562 leukemia = system: K-562 leukemia
SNB-19 CNS = system: SNB-19 CNS
KM12 colon = system: KM12 colon
HCT-15 colon = system: HCT-15 colon
BT-549 breast = system: BT-549 breast
CAKI-1 renal = system: CAKI-1 renal
EKVX NSCLC = system: EKVX NSCLC
COLO 205 colon = system: COLO 205 colon
SF-295 CNS = system: SF-295 CNS
MDA-MB-435 = system: MDA-MB-435
NCI/ADR-RES ovarian = system: NCI/ADR-RES ovarian
HCT-116 colon = system: HCT-116 colon
MOLT-4 leukemia = system: MOLT-4 leukemia
M14 melanoma = system: M14 melanoma
HOP-92 NSCLC = system: HOP-92 NSCLC
OVCAR-4 ovarian = system: OVCAR-4 ovarian
SK-MEL-5 melanoma = system: SK-MEL-5 melanoma
SK-OV-3 ovarian = system: SK-OV-3 ovarian
SK-MEL-28 melanoma = system: SK-MEL-28 melanoma
PC-3 prostate = system: PC-3 prostate
SNB-75 CNS = system: SNB-75 CNS
SR leukemia = system: SR leukemia
OVCAR-3 ovarian = system: OVCAR-3 ovarian
786-0 renal = system: 786-0 renal

Cc1ccc2ccc3ccc(C)nc3c2n1.Cc1ccc2ccc3ccc(C)nc3c2n1.Oc1c(Cl)cc(Cl)c2ccc(CN3CCCCC3)nc12.[Ru]
GI50 (CCRF-CEM leukemia): 423 nM | TGI (CCRF-CEM leukemia): 2200 nM | GI50 (K-562 leukemia): 253 nM | TGI (K-562 leukemia): 1890 nM | GI50 (SNB-19 CNS): 331 nM | TGI (SNB-19 CNS): 1280 nM | GI50 (KM12 colon): 411 nM | TGI (KM12 colon): 1520 nM | GI50 (HCT-15 colon): 1280 nM | TGI (HCT-15 colon): 2770 nM | GI50 (BT-549 breast): 337 nM | TGI (BT-549 breast): 931 nM | GI50 (CAKI-1 renal): 1430 nM | TGI (CAKI-1 renal): 2830 nM | GI50 (EKVX NSCLC): 363 nM | TGI (EKVX NSCLC): 2210 nM | GI50 (COLO 205 colon): 195 nM | TGI (COLO 205 colon): 429 nM | GI50 (SF-295 CNS): 286 nM | TGI (SF-295 CNS): 1160 nM | GI50 (MDA-MB-435): 333 nM | TGI (MDA-MB-435): 1230 nM | GI50 (NCI/ADR-RES ovarian): 2700 nM | TGI (NCI/ADR-RES ovarian): 7990 nM | GI50 (HCT-116 colon): 247 nM | TGI (HCT-116 colon): 1230 nM | GI50 (MOLT-4 leukemia): 461 nM | TGI (MOLT-4 leukemia): 2220 nM | GI50 (M14 melanoma): 383 nM | TGI (M14 melanoma): 1440 nM | GI50 (HOP-92 NSCLC): 109 nM | TGI (HOP-92 NSCLC): 835 nM | GI50 (OVCAR-4 ovarian): 362 nM | TGI (OVCAR-4 ovarian): 1840 nM | GI50 (SK-MEL-5 melanoma): 675 nM | TGI (SK-MEL-5 melanoma): 1860 nM | GI50 (SK-OV-3 ovarian): 293 nM | TGI (SK-OV-3 ovarian): 1070 nM | GI50 (SK-MEL-28 melanoma): 513 nM | TGI (SK-MEL-28 melanoma): 1780 nM | GI50 (PC-3 prostate): 303 nM | TGI (PC-3 prostate): 1500 nM | GI50 (SNB-75 CNS): 243 nM | TGI (SNB-75 CNS): 1120 nM | GI50 (SR leukemia): 345 nM | TGI (SR leukemia): 1750 nM | GI50 (OVCAR-3 ovarian): 387 nM | TGI (OVCAR-3 ovarian): 1380 nM | GI50 (786-0 renal): 542 nM
